From patent publication US8629143B2, “Potassium channel modulators” (AbbVie Inc., priority 2009, dated 2014) come the findings set out here.

The assay addresses T1, KCNQ 2/3 channels (HEK293 cells stably expressing human KCNQ2 and KCNQ3 subunits) (Homo sapiens, UniProt O43525+O43526).
T1 construct: expressed in transfected cells; host or cells: HEK293
Put plainly: KCNQ2/3 channel activation, thallium flux FLIPR assay with BTC-AM dye. The format is cell-based. The settings on record: for Emax: HEK293, read-out: Max. %; for EC50: HEK293 cells expressing human KCNQ2 and KCNQ3, thallium flux, FLIPR. Here is the method: The following example describes the assay that can be used to identify compounds that activate KCNQ 2/3 channels.
HEK293 cells stably expressing human KCNQ2 and KCNQ3 subunits were seeded in 96-well, black-walled, clear-bottomed, poly-D-lysine coated plates (BD Biosciences, Bedford, Mass.) at a density of 1×10^5 cells per well 24 hours before the assay. On the assay day, BTC-AM dye (Invitrogen, Carlsbad, Calif.) was loaded into the cells by replacing the cell culture medium with 55 μL/well of 3 μg/mL dye in DPBS. Dye loading was allowed to proceed for 2 hours at room temperature and then cells were washed twice with 50 μL/well of assay buffer (in mM: 10 HEPES pH 7.3, 5 glucose, 140 Na-gluconate, 2.5 K-gluconate, 3.6 Ca-gluconate, 2 MgSO4, 0.1 Ouabain) to remove unloaded dye. Cells were incubated in 50 μL of assay buffer before loading onto a FLIPR system (Molecular Devices, Sunnyvale, Calif.). Various concentrations of compounds to be assayed were added to the cells in 50 μL of assay buffer and incubated for 4 minutes. The fluorescence signal was initiated by adding 100 μL of assay buffer containing 6 mM TlNO3 and 10 mM K2SO4. Fluors were excited using the 488-nm line of an argon laser and emission was filtered using a 540±30 nm bandpass filter. Fluorescent signals were recorded for 3 minutes. Sums of the responses over basal responses were plotted versus concentrations of test compounds to obtain an EC50 value. The maximum response for each test compound was determined relative to the response produced by 10 μM retigabine. The maximum response of retigabine at 10 μM was set at 100%.

The mark [1] stands for this setting: maximum response relative to the response produced by 10 μM retigabine (set at 100%).

Consider `O=C(CC1CC2CCC1C2)Nn1nc(C(F)(F)F)c2ccccc2c1=O` (racemic) [Example 58, (±)-2-(exo-bicyclo[2.2.1]heptan-2-yl)-N-[1-oxo-4-(trifluoromethyl)phthalazin-2(1H)-yl]acetamide], for which the EC50 (commonly the midpoint of the concentration-response curve) was in the range of 100 to 500 nM. For the same molecule, the Emax under setting [1] is 137%.

In turn, `CC(C)(C)c1nn(NC(=O)CC2CC3CCC2C3)c(=O)c2ccccc12` (racemic) [Example 63, (±)-2-(exo-bicyclo[2.2.1]heptan-2-yl)-N-(4-tert-butyl-1-oxophthalazin-2(1H)-yl)acetamide] came in with an EC50 of less than 100 nM. Besides, the Emax under setting [1] was 160%.

`O=C(C[C@H]1C[C@@H]2CC[C@H]1C2)Nn1nc(C2CCC2)c2ccccc2c1=O` (racemic) [Example 68, (±)-2-(exo-bicyclo[2.2.1]heptan-2-yl)-N-(4-cyclobutyl-1-oxophthalazin-2(1H)-yl)acetamide] gave a 50% effective concentration (EC50) of less than 100 nM. The Emax under setting [1] is 164%.

As for `O=C(CC1CC2CCC1C2)Nn1nc(C2CCCC2)c2ccccc2c1=O` (racemic) [Example 71, (±)-2-(exo-bicyclo[2.2.1]heptan-2-yl)-N-(4-cyclopentyl-1-oxophthalazin-2(1H)-yl)acetamide], the EC50 was less than 100 nM. The Emax under setting [1] is 162%.

In the case of `O=C(CC1CC2CCC1C2)Nn1nc(C2CCCCC2)c2ccccc2c1=O` (racemic) [Example 74, (±)-2-(exo-bicyclo[2.2.1]heptan-2-yl)-N-(4-cyclohexyl-1-oxophthalazin-2(1H)-yl)acetamide], the EC50 was less than 100 nM. Further, under setting [1], the Emax came to 165%.

Molecule `O=C(CC1CC2CCC1C2)Nn1nc(-c2ccc(C(=O)O)cc2)c2ccccc2c1=O` (racemic) [Example 78, (±)-4-(3-{[(exo-bicyclo[2.2.1]heptan-2-yl)acetyl]amino}-4-oxo-3,4-dihydrophthalazin-1-yl)benzoic acid] displayed a concentration giving a half-maximal response (EC50) of 1000 to 10000 nM. Further, under setting [1], the Emax was 140%.

For the molecule `COC(=O)c1ccc(-c2nn(NC(=O)C[C@H]3C[C@@H]4CC[C@H]3C4)c(=O)c3ccccc23)cc1` (racemic) [Example 79, (±)-methyl 4-(3-{[exo-bicyclo[2.2.1]hept-2-ylacetyl]amino}-4-oxo-3,4-dihydrophthalazin-1-yl)benzoate], the EC50 is less than 100 nM. Also, the Emax under setting [1] came out at 144%.

`CN(C)C(=O)c1ccc(-c2nn(NC(=O)CC3CC4CCC3C4)c(=O)c3ccccc23)cc1` (racemic) [Example 81, (±)-4-(3-{[exo-bicyclo[2.2.1]hept-2-ylacetyl]amino}-4-oxo-3,4-dihydrophthalazin-1-yl)-N,N-dimethylbenzamide] showed an EC50 greater than 10000 nM. Besides, the Emax under setting [1] was found to be 50%.

Molecule `O=C(C[C@H]1C[C@@H]2CC[C@H]1C2)Nn1nc(-c2ccc(Br)cc2)c2ccccc2c1=O` (racemic) [Example 84, (±)-2-(exo-bicyclo[2.2.1]heptan-2-yl)-N-[4-(4-bromophenyl)-1-oxophthalazin-2(1H)-yl]acetamide] showed an EC50 of less than 100 nM. Also, the Emax under setting [1] is 134%.

For the molecule `O=C(CC1CC2CCC1C2)Nn1nc(-c2ccc(Cl)cc2)c2ccccc2c1=O` (racemic) [Example 113, (±)-2-(exo-bicyclo[2.2.1]hept-2-yl)-N-[4-(4-chlorophenyl)-1-oxophthalazin-2(1H)-yl]acetamide], the EC50 was less than 100 nM. Moreover, under setting [1], the Emax was found to be 154%.

Regarding `O=C(CC1CC2CCC1C2)Nn1nc(-c2cccc(Cl)c2)c2ccccc2c1=O` (racemic) [Example 125, (±)-2-(exo-bicyclo[2.2.1]hept-2-yl)-N-[4-(3-chlorophenyl)-1-oxophthalazin-2(1H)-yl]acetamide], the 50% effective concentration (EC50) was less than 100 nM. In addition, the Emax under setting [1] is 150%.

The molecule `O=C(CC1CC2CCC1C2)Nn1nc(-c2ccc(F)cc2)c2ccccc2c1=O` (racemic) [Example 131, (±)-2-(exo-bicyclo[2.2.1]hept-2-yl)-N-[4-(4-fluorophenyl)-1-oxophthalazin-2(1H)-yl]acetamide] displayed an EC50 of less than 100 nM. For the same molecule, the Emax under setting [1] came to 150%.

`O=C(C[C@H]1C[C@@H]2CC[C@H]1C2)Nn1nc(-c2ccc(F)cc2F)c2ccccc2c1=O` (racemic) [Example 134, (±)-2-(exo-bicyclo[2.2.1]hept-2-yl)-N-[4-(2,4-difluorophenyl)-1-oxophthalazin-2(1H)-yl]acetamide] registered an EC50 of less than 100 nM. Moreover, the Emax under setting [1] turned out to be 192%.

For the molecule `O=C(C[C@H]1C[C@@H]2CC[C@H]1C2)Nn1nc(Cc2ccccc2)c2ccccc2c1=O` (racemic) [Example 141, (±)-N-(4-benzyl-1-oxophthalazin-2(1H)-yl)-2-(exo-bicyclo[2.2.1]hept-2-yl)acetamide], the concentration giving a half-maximal response (EC50) was less than 100 nM. Moreover, under setting [1], the Emax was determined as 130%.

For `O=C(CC1CC2CCC1C2)Nn1nc(Cc2ccc(Cl)cc2)c2ccccc2c1=O` (racemic) [Example 144, (±)-2-(exo-bicyclo[2.2.1]hept-2-yl)-N-[4-(4-chlorobenzyl)-1-oxophthalazin-2(1H)-yl]acetamide], the EC50 was less than 100 nM. For the same molecule, under setting [1], the Emax turned out to be 139%.

Take `COc1ccc(-c2nn(NC(=O)CC3CC4CCC3C4)c(=O)c3ccccc23)cc1` (racemic) [Example 151, (±)-2-(exo-bicyclo[2.2.1]hept-2-yl)-N-[4-(4-methoxyphenyl)-1-oxophthalazin-2(1H)-yl]acetamide]: the EC50 is less than 100 nM. Under setting [1], the Emax was 141%.

On to `Cc1ccc(C)c(-c2nn(NC(=O)CC3CC4CCC3C4)c(=O)c3ccccc23)c1` (racemic) [Example 155, (±)-2-(exo-bicyclo[2.2.1]hept-2-yl)-N-[4-(2,5-dimethylphenyl)-1-oxophthalazin-2(1H)-yl]acetamide], for which the concentration giving a half-maximal response (EC50) is less than 100 nM. Besides, under setting [1], the Max. % amounted to 165%.

In the case of `Cc1ccc(-c2nn(NC(=O)CC3CC4CCC3C4)c(=O)c3ccccc23)c(C)c1` (racemic) [Example 160, (±)-2-(exo-bicyclo[2.2.1]hept-2-yl)-N-[4-(2,4-dimethylphenyl)-1-oxophthalazin-2(1H)-yl]acetamide], the EC50 was less than 100 nM. Besides, under setting [1], the Emax came out at 157%.

Regarding `Cc1ccc(-c2nn(NC(=O)CC3CC4CCC3C4)c(=O)c3ccccc23)cc1C` (racemic) [Example 163, (±)-2-(exo-bicyclo[2.2.1]hept-2-yl)-N-[4-(3,4-dimethylphenyl)-1-oxophthalazin-2(1H)-yl]acetamide], the EC50 was less than 100 nM. For the same molecule, the Emax under setting [1] turned out to be 177%.

In the case of `O=C(CC1CC2CCC1C2)Nn1nc(CCc2ccccc2)c2ccccc2c1=O` (racemic) [Example 167, (±)-2-(exo-bicyclo[2.2.1]hept-2-yl)-N-[1-oxo-4-(2-phenylethyl)phthalazin-2(1H)-yl]acetamide], the EC50 is less than 100 nM. In addition, the Emax under setting [1] stood at 144%.

`CC(C)c1ccc(-c2nn(NC(=O)C[C@H]3C[C@@H]4CC[C@H]3C4)c(=O)c3ccccc23)cc1` (racemic) [Example 168, (±)-2-(exo-bicyclo[2.2.1]hept-2-yl)-N-[4-(4-isopropylphenyl)-1-oxophthalazin-2(1H)-yl]acetamide] returned an EC50 of 100 to 500 nM. Further, the Emax under setting [1] is 134%.

In the case of `O=C(C[C@H]1C[C@@H]2CC[C@H]1C2)Nn1nc(C2(c3ccccc3)CC2)c2ccccc2c1=O` (racemic) [Example 172, (±)-2-(exo-bicyclo[2.2.1]hept-2-yl)-N-[1-oxo-4-(1-phenylcyclopropyl)phthalazin-2(1H)-yl]acetamide], the EC50 is less than 100 nM. Under setting [1], the Emax was 195%.

`O=C(CC1CC2CCC1C2)Nn1nc(-c2ccc(Cl)cc2)c2c(F)ccc(F)c2c1=O` (racemic) [Example 184, (±)-2-(exo-bicyclo[2.2.1]hept-2-yl)-N-[4-(4-chlorophenyl)-5,8-difluoro-1-oxophthalazin-2(1H)-yl]acetamide] returned an EC50 of less than 100 nM. Under setting [1], the Emax was found to be 154%.

In turn, `O=C(Nn1nc(-c2ccc(Cl)cc2)c2ccccc2c1=O)[C@@H]1C[C@H]1c1ccccc1` (relative stereo) [Example 120, trans-N-[4-(4-chlorophenyl)-1-oxophthalazin-2(1H)-yl]-2-phenylcyclopropanecarboxamide] came in with a concentration for a half-maximal effect (EC50) of 500 to 1000 nM. Under setting [1], the Emax amounted to 103%.

Take `CC(C)c1nn(NC(=O)Cc2ccc(Cl)cc2)c(=O)c2ccccc12` [Example 1, 2-(4-chlorophenyl)-N-(4-isopropyl-1-oxophthalazin-2(1H)-yl)acetamide]: the EC50 fell in the range of 100 to 500 nM. Besides, under setting [1], the Emax was found to be 125%.

Molecule `O=C(CC12CC3CC(CC(C3)C1)C2)Nn1nc(-c2ccc(Br)cc2)c2ccccc2c1=O` [Example 2, 2-(1-adamantyl)-N-[4-(4-bromophenyl)-1-oxophthalazin-2(1H)-yl]acetamide] returned a concentration for a half-maximal effect (EC50) of 100 to 500 nM. For the same molecule, the Emax under setting [1] turned out to be 193%.

In the case of `O=C(Cc1ccc(Cl)cc1)Nn1nc(-c2ccccc2)c2ccccc2c1=O` [Example 4, 2-(4-chlorophenyl)-N-(1-oxo-4-phenylphthalazin-2(1H)-yl)acetamide], the EC50 lay in the range of 100 to 500 nM. For the same molecule, the Emax under setting [1] is 157%.
